According to ChEMBL document CHEMBL4339185 (Eur J Med Chem, 2019):
≈ marks a conversion by molar mass, not a printed value.

How the values were obtained:
Staphylococcus aureus [1] = test: Antimicrobial activity against methicillin-resistant Staphylococcus aureus incubated for 18 hrs by serial microdilution method; format: functional
Staphylococcus aureus [2] = test: Antimicrobial activity against Staphylococcus aureus ATCC 6538 incubated for 18 hrs by serial microdilution method; format: functional; conditions: ATCC 6538, 18 h
Staphylococcus aureus [3] = test: Antimicrobial activity against MLSB-resistant Staphylococcus aureus incubated for 18 hrs by serial microdilution method; format: functional
[4] = test system: Staphylococcus epidermidis; test: Antimicrobial activity against Staphylococcus epidermidis ATCC 12228 incubated for 18 hrs by serial microdilution method; format: functional; conditions: ATCC 12228, 18 h
[5] = test system: Staphylococcus epidermidis; test: Antimicrobial activity against Staphylococcus epidermidis ATCC 49134 incubated for 18 hrs by serial microdilution method; format: functional; conditions: ATCC 49134, 18 h
Enterococcus faecalis [6] = test: Antimicrobial activity against Enterococcus faecalis ATCC 29212 incubated for 18 hrs by serial microdilution method; format: functional; conditions: ATCC 29212, 18 h
Escherichia coli = test: Antimicrobial activity against Escherichia coli ATCC 25922 incubated for 18 hrs by serial microdilution method; format: functional; conditions: ATCC 25922, 18 h
[7] = Solubility of the compound in water at pH 7 by UV-vis spectrophotometric analysis; format: physicochemical
[8] = Lipophilicity, log P of the compound in octanol and water incubated for 1 h under shaking condition; format: physicochemical
Enterococcus faecalis [9] = test: Potency index, ratio of rifampicin MIC to compound MIC for Enterococcus faecalis ATCC 29212; format: functional
Enterococcus faecalis [10] = test: Potency index, ratio of rifaximin MIC to compound MIC for Enterococcus faecalis ATCC 29212; format: functional
Staphylococcus aureus [11] = test: Potency index, ratio of rifampicin MIC to compound MIC for Staphylococcus aureus ATCC 6538; format: functional
Staphylococcus aureus [12] = test: Potency index, ratio of rifaximin MIC to compound MIC for Staphylococcus aureus ATCC 6538; format: functional
[13] = test system: Staphylococcus epidermidis; test: Potency index, ratio of rifampicin MIC to compound MIC for Staphylococcus epidermidis ATCC 12228; format: functional
[14] = test system: Staphylococcus epidermidis; test: Potency index, ratio of rifaximin MIC to compound MIC for Staphylococcus epidermidis 12228; format: functional
[15] = test system: Staphylococcus epidermidis; test: Potency index, ratio of rifampicin MIC to compound MIC for Staphylococcus epidermidis ATCC 49134; format: functional
[16] = test system: Staphylococcus epidermidis; test: Potency index, ratio of rifaximin MIC to compound MIC for Staphylococcus epidermidis ATCC 49134; format: functional

`CO[C@H]1/C=C/O[C@@]2(C)Oc3c(C)c(O)c4c(O)c(c(/C=N/NC5=NCCN5)c(O)c4c3C2=O)NC(=O)/C(C)=C\C=C\[C@H](C)[C@H](O)[C@@H](C)[C@@H](O)[C@@H](C)[C@H](OC(C)=O)[C@@H]1C` gave an MIC (Staphylococcus aureus [1]) of 0.0156 µg/mL (≈ 0.0193 µM), an MIC (Staphylococcus aureus [2]) of 0.0078 µg/mL (≈ 0.00965 µM) and an MIC (Staphylococcus aureus [3]) of 0.0078 µg/mL (≈ 0.00965 µM). The MIC [4] was 0.0078 µg/mL (≈ 0.00965 µM), the MIC [5] was 0.0078 µg/mL (≈ 0.00965 µM) and the MIC (Enterococcus faecalis [6]) was 1 µg/mL (≈ 1.24 µM). It also gave an MIC (Escherichia coli) of over 8 µg/mL, a solubility [7] of 4250 µg/mL (≈ 5260 µM) and a logP at 1 h [8] of 1.33. The Ratio (Enterococcus faecalis [9]) was 8, the Ratio (Enterococcus faecalis [10]) was 8 and the Ratio (Staphylococcus aureus [11]) was 8. The Ratio (Staphylococcus aureus [12]) was 8, the Ratio [13] was 8 and the Ratio [14] was 8. For the same compound, the Ratio [15] was 8 and the Ratio [16] was 8.

`CO[C@H]1/C=C/O[C@@]2(C)Oc3c(C)c(O)c4c(O)c(c(CN5CCC6(CC5)NCCc5ccccc56)c(O)c4c3C2=O)NC(=O)/C(C)=C\C=C\[C@H](C)[C@H](O)[C@@H](C)[C@@H](O)[C@@H](C)[C@H](OC(C)=O)[C@@H]1C` showed an MIC (Staphylococcus aureus [1]) of 8 µg/mL (≈ 8.77 µM), an MIC (Staphylococcus aureus [2]) of 8 µg/mL (≈ 8.77 µM) and an MIC (Staphylococcus aureus [3]) of 8 µg/mL (≈ 8.77 µM). It also gave an MIC [4] of 2 µg/mL (≈ 2.19 µM), an MIC [5] of 2 µg/mL (≈ 2.19 µM) and an MIC (Enterococcus faecalis [6]) of 4 µg/mL (≈ 4.39 µM). For the same compound, the MIC (Escherichia coli) was over 8 µg/mL, the solubility [7] was under 50 µg/mL and the logP at 1 h [8] was 2.09.

In the case of `CO[C@H]1/C=C/O[C@@]2(C)Oc3c(C)c(O)c4c(O)c(c(CN5CCN(C)C6(CCN(C)CC6)C5)c(O)c4c3C2=O)NC(=O)/C(C)=C\C=C\[C@H](C)[C@H](O)[C@@H](C)[C@@H](O)[C@@H](C)[C@H](OC(C)=O)[C@@H]1C`, the MIC (Staphylococcus aureus [1]) is reported as 0.125 µg/mL (≈ 0.14 µM), the MIC (Staphylococcus aureus [2]) is reported as 0.25 µg/mL (≈ 0.28 µM) and the MIC (Staphylococcus aureus [3]) is reported as 0.125 µg/mL (≈ 0.14 µM). It also gave an MIC [4] of 0.0625 µg/mL (≈ 0.07 µM), an MIC [5] of 0.0625 µg/mL (≈ 0.07 µM) and an MIC (Enterococcus faecalis [6]) of 2 µg/mL (≈ 2.24 µM). It also gave an MIC (Escherichia coli) of over 8 µg/mL, a solubility [7] of 1830 µg/mL (≈ 2050 µM) and a logP at 1 h [8] of 0.72.

Compound `CO[C@H]1/C=C/O[C@@]2(C)Oc3c(C)c(O)c4c(O)c(c(CNC5CCN(CC6CCCCC6)CC5)c(O)c4c3C2=O)NC(=O)/C(C)=C\C=C\[C@H](C)[C@H](O)[C@@H](C)[C@@H](O)[C@@H](C)[C@H](OC(C)=O)[C@@H]1C` has an MIC (Staphylococcus aureus [1]) of 0.25 µg/mL (≈ 0.276 µM), an MIC (Staphylococcus aureus [2]) of 0.25 µg/mL (≈ 0.276 µM) and an MIC (Staphylococcus aureus [3]) of 0.125 µg/mL (≈ 0.138 µM). For the same compound, the MIC [4] was 0.125 µg/mL (≈ 0.138 µM), the MIC [5] was 0.125 µg/mL (≈ 0.138 µM) and the MIC (Enterococcus faecalis [6]) was 4 µg/mL (≈ 4.41 µM). The MIC (Escherichia coli) was over 8 µg/mL, the solubility [7] was under 50 µg/mL and the logP at 1 h [8] was 3.31.

Compound `CO[C@H]1/C=C/O[C@@]2(C)Oc3c(C)c(O)c4c(O)c(c(CN5CCN(c6ncccc6C(F)(F)F)CC5)c(O)c4c3C2=O)NC(=O)/C(C)=C\C=C\[C@H](C)[C@H](O)[C@@H](C)[C@@H](O)[C@@H](C)[C@H](OC(C)=O)[C@@H]1C` has an MIC (Staphylococcus aureus [1]) of 4 µg/mL (≈ 4.25 µM), an MIC (Staphylococcus aureus [2]) of 2 µg/mL (≈ 2.13 µM) and an MIC (Staphylococcus aureus [3]) of 2 µg/mL (≈ 2.13 µM). The MIC [4] was 0.5 µg/mL (≈ 0.531 µM), the MIC [5] was 0.5 µg/mL (≈ 0.531 µM) and the MIC (Enterococcus faecalis [6]) was over 8 µg/mL. The MIC (Escherichia coli) was over 8 µg/mL, the solubility [7] was under 50 µg/mL and the logP at 1 h [8] was 2.09.

With `CO[C@H]1/C=C/O[C@@]2(C)Oc3c(C)c(O)c4c(O)c(c(CN5CCC(N6CCC(C(=O)O)CC6)CC5)c(O)c4c3C2=O)NC(=O)/C(C)=C\C=C\[C@H](C)[C@H](O)[C@@H](C)[C@@H](O)[C@@H](C)[C@H](OC(C)=O)[C@@H]1C` the MIC (Staphylococcus aureus [1]) was 0.0078 µg/mL (≈ 0.00846 µM), the MIC (Staphylococcus aureus [2]) was 0.0078 µg/mL (≈ 0.00846 µM) and the MIC (Staphylococcus aureus [3]) was 0.0078 µg/mL (≈ 0.00846 µM). The MIC [4] was 0.0078 µg/mL (≈ 0.00846 µM), the MIC [5] was 0.0078 µg/mL (≈ 0.00846 µM) and the MIC (Enterococcus faecalis [6]) was 1 µg/mL (≈ 1.08 µM). The MIC (Escherichia coli) was over 8 µg/mL, the solubility [7] was 70000 µg/mL (≈ 75900 µM) and the logP at 1 h [8] was -1.34. It also gave a Ratio (Enterococcus faecalis [9]) of 8, a Ratio (Enterococcus faecalis [10]) of 8 and a Ratio (Staphylococcus aureus [11]) of 8. The Ratio (Staphylococcus aureus [12]) was 8, the Ratio [13] was 8 and the Ratio [14] was 8. For the same compound, the Ratio [15] was 8 and the Ratio [16] was 8.

Work on `CO[C@H]1/C=C/O[C@@]2(C)Oc3c(C)c(O)c4c(O)c(c(CN5CCC(N(C)C)CC5)c(O)c4c3C2=O)NC(=O)/C(C)=C\C=C\[C@H](C)[C@H](O)[C@@H](C)[C@@H](O)[C@@H](C)[C@H](OC(C)=O)[C@@H]1C` yielded an MIC (Staphylococcus aureus [1]) of 0.25 µg/mL (≈ 0.298 µM), an MIC (Staphylococcus aureus [2]) of 0.25 µg/mL (≈ 0.298 µM) and an MIC (Staphylococcus aureus [3]) of 0.125 µg/mL (≈ 0.149 µM). For the same compound, the MIC [4] was 0.125 µg/mL (≈ 0.149 µM), the MIC [5] was 0.125 µg/mL (≈ 0.149 µM) and the MIC (Enterococcus faecalis [6]) was 8 µg/mL (≈ 9.55 µM). For the same compound, the MIC (Escherichia coli) was over 8 µg/mL, the solubility [7] was 1870 µg/mL (≈ 2230 µM) and the logP at 1 h [8] was 1.23.
